Values quoted from earlier work as cited in patent US6372423B1, “Method for stabilizing platelets” (Dade Behring Marburg GmbH, priority 1996, dated 2002).
Counter-ions that a name gives are not always drawn.

Details: intravenous administration of 0.8 mg per kg and hour

In the case of `CCN(CCO)CCCC(C)Nc1ccnc2cc(Cl)ccc12` (stereo not shown) [hydroxychloroquine sulfate], the Toxicological assessment is listed as “toxicologically harmless”.
